From patent US6713494B1, “Amorphous benzothiophenes, methods of preparation and methods of use” (Eli Lilly and Company, priority 1996, dated 2004)
Where a name gives a salt, the structure may show the parent alone. Read-outs that look alike come from different tables or passages of the source.

How the values were obtained:
[1] = Bioavailability study: plasma levels in dogs; format: in vivo; details: 4 mg/kg, PEG vehicle, plasma levels over a 10 hour period, amorphous vs crystalline form
Description: The extent and rate of absorption of the crystalline and amorphous forms of raloxifene HCl was determined. The two forms of the compound were formulated in a PEG vehicle as follows: […]
Six dogs were dosed as follows: three dogs received the amorphous form, while three dogs received the crystalline form, both at a dose of 4 mg/kg. Plasma levels of the two compound forms were then determined over a 10 hour period.

[2] = for Solubility: in water, room temperature, hydrochloride
[3] = long term studies; birefringence under polarized light microscope
Description: The presence of the amorphous form of a compound of formula I was determined by observing the material under a polarized light microscope, and determining if the material was birefringent. If no birefringence was observed, the material was considered to be amorphous.
The amorphous material was also made as a complex with povidone, with ratios of raloxifene HCl to PVP as follows: 9:1, 3:1, and 1:1 (w/w). Complexes with hydroxypropyl-β-cyclodextrin (HPBCD) were also prepared, with a ratio of raloxifene HCl to HPBCD of from 1:1 to 1:4 (w/w).

[4] = physchem; details: water, 37 °C, thermodynamic from solid, in water, in sonicator

| Compound | Bioavailability (plasma levels) [1] | Solubility of the amorphous form relative to the crystalline form ([2]; amorphous vs crystalline form) | Solubility [2] [mg/mL] | Stability of the amorphous form [3] | Solubility [4] [mg/mL] |
| --- | --- | --- | --- | --- | --- |
| O=C(c1ccc(OCCN2CCCCC2)cc1)c1c(-c2ccc(O)cc2)sc2cc(O)ccc12 [amorphous, raloxifene hydrochloride] | greater bioavailability | approximately 250 times | 42.2 | very stable | 120 |
| O=C(c1ccc(OCCN2CCCCC2)cc1)c1c(-c2ccc(O)cc2)sc2cc(O)ccc12 [crystalline, raloxifene hydrochloride, reference compound] |  |  | 0.08 |  |  |
